Patent publication US9782383B2, “Prophylactic and therapeutic agent for attention-deficit/hyperactivity disorder” (FUJIMOTO CO., LTD., priority 2013, dated 2017)
Where two headings read alike, the source gives them in different places.

Experiments:
SHRSP/Ezo rats [1] = test: Y-maze test (inattentive behavior); format: in vivo, rat
Description: (§1) In all the tests described herein, the R configuration (−) substance hydrochloride salt of the compound for use in the invention (hereinafter referred to as “BPAP” in some cases) as the test material and methylphenidate hydrochloride (SIGMA Aldrich) as the comparative drug were dissolved in saline, diluted to a volume of 2 ml/kg before administration, and systemically administered into six-week-old male SHRSP/Ezo rats 30 minutes before behavior tests. Note that BPAP was subcutaneously (s.c.) administered, and methylphenidate was subcutaneously (s.c.) or intraperitoneally (i.p.) administered after the confirmation that there was no difference between the two routes, i.e., the s.c. and i.p. administration.
The short-term working memory was evaluated as a spontaneous alternation behavior using a Y-maze (45 (length)×10 (width)×35 cm (height)). The spontaneous alternation is a behavior based on the habit of a rodent preferring to investigate a new arm of the maze rather than returning to one that was previously visited in the Y-maze. In order to select three different arms continuously, it is necessary to remember the previously visited arm. To achieve this, therefore, the short-term working memory is considered indispensable. Because the processes of the short-term working memory are closely related to an appropriate amount of attention toward achievement of the task, the short-term working memory implicates aspects of attention. Thus, the Y-maze test was carried out to evaluate the inattentive behavior in SHRSP/Ezo rats.
The spontaneous alternation was measured according to the method by Sarter et al. (Psychopharmacology (Berl), 94:491-5 (1988)) using the following procedure. Under a 200-lux illuminance condition, each rat was placed in the center of the crossing point of the three arms and allowed to enter the maze arm freely for eight-minute test session, and the sequence of arm entries was recorded. The alteration behavior was defined as the consecutive entry into three arms, i.e. the combination of three different arms, with stepwise combinations in the sequence. The percentage obtained by dividing the spontaneous alternation behavior by the total number of arm entries (total arm entries) minus 2 was determined as the spontaneous alternation behavior rate (alternation rate). For example, assuming that the rat has entered the arms A, B, and C of the Y-maze in the order of ACBABACBAB, the spontaneous alternation behavior is five (ACB, CBA, BAC, ACB, and CBA), the total number of arm entries is ten, and the spontaneous alternation behavior rate is 62.5%. To consider the influence of variations in spontaneous alternation behavior rate among groups during the baseline (drug-untreated) period on the drug efficacy evaluation, the first Y-maze test was carried out three days before the drug efficacy evaluation, and grouping was performed based on the result of spontaneous alternation behavior rates in the 1st Y-maze test.
(§2) Data were represented as the means±standard errors. Student's t-test was used for the statistics analysis, and a P value below 5% was considered statistically significant.

SHRSP/Ezo rats [2] = test: Open field test (hyperactivity, inner zone spent time); format: in vivo, rat
Description: as §1
The spontaneous locomotor activity in a new environment was evaluated using an open-field apparatus (90 (width)×90 (depth)×40 cm (height), 81 squares).
In this experiment, under a 200-lux illuminance condition, rats were placed in the center of the open field and allowed to move freely in the field for a 60-minute test session, and the horizontal activities (crossings: the number of squares crossed) during the exploration was analyzed by a video tracking system for behavioral experiments (LimeLight Actimetrics, USA).
as §2
Since the spent time in the inner zones (nine compartments in the center) (inner zone spent time) in the open field test is used for the evaluation of the anxiety level, the spent times per time (sec/15 min) and per behavior (sec/count) corrected with the locomotor activity (total crossings) were analyzed as the secondary evaluation in the open field test (FIG. 3). […] SHRSP/Ezo rats show an increase in spent time in the inner zone at the habituated phase during which hyperactivity was observed, indicating a reduction in anxiety level at the habituated phase. […] However, 0.3 mg/kg of BPAP had no effect on the reduction in anxiety level at habituated phase.

SHRSP/Ezo rats [3] = test: Elevated-plus maze test (impulsivity); format: in vivo, rat
Description: as §1
The anxiety-related behavior was evaluated using an elevated plus maze (open arm: 50 (length)×10 cm (width), enclosed arm: 50 (length)×10 (width)×40 cm (height), height above the floor: 50 cm). The device is constituted by a wall-less open arm and a wall-surrounding enclosed arm crossing each other at right angles at a height of 50 cm above the floor. An animal staying in an open arm is exposed to anxiety in the elevated wall-less open state. […] The elevated-plus maze test reflects an equilibrium state between the approach behavior (curiosity) and the avoidance behavior driven by anxiety in an animal, and thus is generally used for the evaluation of the anxiety level of an animal.
In this experiment, under a 200-lux illuminance condition, a rat was placed in the center of the crossing point of two sets of arms and allowed to enter freely into the maze for a ten-minute test session. The total number of arm entries (total arm entries), the time spent in open arms and the rate of open arm entries were analyzed by a video tracking system for behavioral experiments (LimeLight Actimetrics).
as §2

[4] = system: human monoamine transporters (DAT, NET, SERT); test: Affinity for human monoamine transporters; format: binding; conditions: for order of affinities for human monoamine transporters: highest first
[5] = system: ADHD model rats or normal rats; test: Locomotor activity in ADHD model rats or normal rats; format: in vivo, rat; conditions: high dose
rats = test: Methamphetamine-seeking behavior in rats
[6] = system: human monoamine transporters (DAT, NET, SERT); conditions: highest first; Neuropsychopharmacology 27: 699-711 (2002); cited from earlier work
[7] = system: ADHD model rats or normal rats; conditions: cited from earlier work; for locomotor activities: increasing doses
[8] = human, in vivo; cited from earlier work
[9] = human, in vivo; cited from earlier work; remark: listed apart in the source
ADHD patients = conditions: cited from earlier work
[10] = 1 mg/kg as comparative drug (FIG. 1)
[11] = 1 mg/kg as comparative drug (FIG. 2)

SMILES: CCCNC(CCC)Cc1cc2ccccc2o1 (single isomer, unassigned; (-)) [BPAP, (−)-1-(benzofuran-2-yl)-2-propylaminopentane]
- impaired alternation behavior (SHRSP/Ezo rats [1]; s.c., 0.03 mg/kg): no improvement action was observed
- total number of arm entries compared with the first trial (Y1) (SHRSP/Ezo rats [1]; s.c., 0.03 to 0.3 mg/kg): significantly decreased
- impaired alternation behavior (SHRSP/Ezo rats [1]; s.c., 0.1 to 0.3 mg/kg): significantly improved
- locomotor activity at the exploration phase (SHRSP/Ezo rats [2]; s.c., 0.3 mg/kg): no action
- locomotor activity at the habituated phase (SHRSP/Ezo rats [2]; s.c., 0.3 mg/kg): no action
- reduction in anxiety level (inner zone spent time) at habituated phase (SHRSP/Ezo rats [2]; s.c., 0.3 mg/kg): no effect
- increase in behavior at the habituated phase (SHRSP/Ezo rats [2]; s.c., 0.01 to 0.1 mg/kg): significantly inhibited
- inner zone spent time at the habituated phase (SHRSP/Ezo rats [2]; s.c., 0.01 to 0.1 mg/kg): significantly reduced
- locomotor activity at the exploration phase (SHRSP/Ezo rats [2]; s.c., 0.01 to 0.1 mg/kg): without affecting
- rate of open arm entries (SHRSP/Ezo rats [3]; s.c., 0.1 mg/kg (P=0.08)): tendency to reduce
- spent time on the open arms per total number of arm entries (SHRSP/Ezo rats [3]; s.c., 0.1 mg/kg, secondary analysis): significantly reduced
- extension of the spent time on the open arms (SHRSP/Ezo rats [3]; s.c., 0.01 to 0.3 mg/kg): no effect
- relative affinity NET/DAT ([4]; compared with methylphenidate): substantially equal
- relative affinity for SERT (SERT/DAT) ([4]; compared with methylphenidate): higher
- order of affinities for human monoamine transporters [4]: DAT>NET>serotonin transporter (SERT)
- spontaneous locomotor activity [5]: increases
- methamphetamine-seeking behavior (rats; due to drug-associated cues and methamphetamine-priming): inhibition action
- induction of methamphetamine-seeking behavior (dependence liability) (rats; effective dose): did not induce

SMILES: CNCC[C@@H](Oc1ccccc1C)c1ccccc1 [atomoxetine]
- order of affinities for human monoamine transporters [6]: NET>SERT>DAT
- locomotor activities during an exploration period [7]: decreases
- locomotor activities [7]: does not exhibit increases
- abdominal pain [8]: 12.2%
- headache [8]: 22.3%
- dry mouth [9]: 13.8%
- headaches [9]: 10.5%

SMILES: COC(=O)C(c1ccccc1)C1CCCCN1 (stereo not shown) [methylphenidate]
- reduction in spontaneous alternation behavior rate (SHRSP/Ezo rats [1]; [10]): recovered
- total number of arm entries (SHRSP/Ezo rats [1]; [10]): without increasing
- increase in the total number of arm entries (SHRSP/Ezo rats [1]; i.p., 1 mg/kg, dose validation): significant exaltation
- reduction in spontaneous alternation behavior rate (SHRSP/Ezo rats [1]; i.p., 1 mg/kg, dose validation): improved
- increase in the total number of arm entries (SHRSP/Ezo rats [1]; i.p., 0.01 and 0.1 mg/kg): no influence
- reduction in spontaneous alternation behavior rate (SHRSP/Ezo rats [1]; i.p., 0.01 to 1 mg/kg): dose-dependently improved
- reduction in anxiety level (inner zone spent time) at the habituated phase (SHRSP/Ezo rats [2]; 1 mg/kg (FIG. 3)): no effect
- spent time in the inner zone at the exploration phase (SHRSP/Ezo rats [2]; 1 mg/kg (FIG. 3)): significantly increased
- hyperactivity during the exploration phase (0 to 15 minutes) (SHRSP/Ezo rats [2]; [11]): worsened
- hyperactivity during the habituated phase (15 to 60 minutes) (SHRSP/Ezo rats [2]; [11]): worsened
- hyperactivity (horizontal ambulatory) in open field test (SHRSP/Ezo rats [2]; i.p., 1 mg/kg): did not decreased
- hyperactivity (horizontal ambulatory) in open field test (SHRSP/Ezo rats [2]; i.p., 0.01 and 0.1 mg/kg): significantly decreased
- increase in spontaneous ambulatory in open field test (SHRSP/Ezo rats [2]; i.p., 3 and 30 mg/kg): exacerbated
- extension of the spent time on the open arms (SHRSP/Ezo rats [3]; 1 mg/kg (FIG. 4)): did not improve
- increase in the rate of open arm entries (SHRSP/Ezo rats [3]; 1 mg/kg (FIG. 4)): did not improve
- increase in the total number of arm entries (hyperactivity) (SHRSP/Ezo rats [3]; 1 mg/kg (FIG. 4)): significant worsened
- extension of the open arm spent time (SHRSP/Ezo rats [3]; i.p., 0.01 to 1 mg/kg): no statistically significant change
- increase in the number of open arm entries (SHRSP/Ezo rats [3]; i.p., 0.01 to 1 mg/kg): no statistically significant change
- order of affinities for human monoamine transporters [4]: DAT>NET>serotonin transporter (SERT)
- locomotor activities [7]: dose-dependent increases
- share of ADHD patients for whom the drug is ineffective (ADHD patients): approximately three out of ten
